Laboratory results reported in the supplement of paper PMC11061612.

Legend:
[1] = system: NAMALWA (Burkitt's Lymphoma); assay: combination Emax (second highest fraction inhibited in the dose matrix, 72 h); higher = more inhibition; extreme values may be limits of the assay
Summary of the method: (§1)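 After 24 hours at 37°C and 5% CO2 in 1536-well plates, cells in DMEM/F12 or RPMI plus 10% FBS received two-drug dose matrices for 72 hours. Viability came from CellTiter-Glo 2.0 luminescence and was scaled as inhibition, anchored at 0 by vehicle wells and at 1 by blank wells. Combination Emax is taken as the second-highest inhibition in the matrix, and Bliss excess as the observed combination effect less EA + EB − EA·EB, with EA and EB the single-agent effects.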

[2] = system: NB1 (Neuroblastoma); assay: as above
Summary of the method: as §1

[3] = system: T84 (Colorectal Carcinoma); assay: as above
Summary of the method: as §1

[4] = system: BxPC-3 (Pancreatic Carcinoma); assay: as above
Summary of the method: as §1

[5] = system: C-33-A (Cervical Carcinoma); assay: as above
Summary of the method: as §1

[6] = system: NCI-H1341 (Small Cell Lung Carcinoma); assay: as above
Summary of the method: as §1

[7] = system: DBTRG-05MG (Glioblastoma); assay: as above
Summary of the method: as §1

[8] = system: SAT (Head and Neck Carcinoma); assay: as above
Summary of the method: as §1

[9] = system: WM35 (Melanoma); assay: as above
Summary of the method: as §1

[10] = system: SKG-IIIa (Cervical Carcinoma); assay: as above
Summary of the method: as §1

[11] = system: HT-1080 (Other Solid Carcinomas); assay: as above
Summary of the method: as §1

[12] = system: HPAF-II (Pancreatic Carcinoma); assay: as above
Summary of the method: as §1

[13] = system: SNU-423 (Hepatocellular Carcinoma); assay: as above
Summary of the method: as §1

[14] = system: ZR-75-30 (Breast Carcinoma); assay: as above
Summary of the method: as §1

[15] = system: NCI-H2373 (Mesothelioma); assay: as above
Summary of the method: as §1

[16] = system: HPAF-II (Pancreatic Carcinoma); assay: Bliss excess, mean over the matrix (fraction); higher = more synergy
Summary of the method: as §1
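For Bliss excess, mean over the matrix in this document: after 72 h of two-drug dosing.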

Structure (SMILES) | combination Emax [1] | combination Emax [2] | combination Emax [3] | combination Emax [4] | combination Emax [5] | combination Emax [6] | combination Emax [7] | combination Emax [8] | combination Emax [9] | combination Emax [10] | combination Emax [11] | combination Emax [12] | combination Emax [13] | combination Emax [14] | combination Emax [15] | Bliss excess [16]
COc1cc2ncnc(Nc3ccc(F)c(Cl)c3)c2cc1OCCCN1CCOCC1 [Gefitinib] + CC(C)n1c(=O)n(C)c2cnc3cc(F)c(-c4ccc(OCCCN5CCCCC5)nc4)cc3c21 [AZD1390] (first compound max 10 µM, 7x7, partner max 0.3 µM) | 0.214 | 0.0869 | 0.227 | 0.285 | 0.485 | 0.108 | 0.0768 | 0.69 | 0.0767 | 0.148 | 0.0949 | 0.29 | 0.126 | 0.446 | 0.119 | -0.066
CS(=O)(=O)CCNCc1ccc(-c2ccc3ncnc(Nc4ccc(OCc5cccc(F)c5)c(Cl)c4)c3c2)o1 [Lapatinib] + C[C@@H](Oc1cc(-c2cnn(C3CCNCC3)c2)cnc1N)c1c(Cl)ccc(F)c1Cl [Crizotinib] (first compound max 10 µM, 7x7, partner max 10 µM) | 0.942 | 0.965 | 0.856 | 0.946 | 0.921 | 0.898 | 0.332 | 0.981 | 0.88 | 0.733 | 0.823 | 0.614 | 0.952 | 0.83 | 0.559 | 0.0211
CC(=O)c1c(C)c2cnc(Nc3ccc(N4CCNCC4)cn3)nc2n(C2CCCC2)c1=O [Palbociclib] + CC1(C)CCC(CN2CCN(c3ccc(C(=O)NS(=O)(=O)c4ccc(NCC5CCOCC5)c([N+](=O)[O-])c4)c(Oc4cnc5[nH]ccc5c4)c3)CC2)=C(c2ccc(Cl)cc2)C1 [Venetoclax] (first compound max 10 µM, 7x7, partner max 1 µM) | 0.537 | 0.345 | 0.079 | 0.0941 | 0.354 | 0.259 | 0.114 | 0.353 | 0.135 | 0.0106 | 0.143 | 0.0506 | 0.179 | 0.101 | 0.223 | -0.034
CC(=O)c1c(C)c2cnc(Nc3ccc(N4CCNCC4)cn3)nc2n(C2CCCC2)c1=O [Palbociclib] + Cc1c2c(nn1C)CSCc1cc(n(C)n1)CSc1cc(c3ccccc3c1)OCCCc1c(C(=O)O)n(C)c3c-2c(Cl)ccc13 [AZD5991] (first compound max 10 µM, 7x7, partner max 1 µM) | 0.956 | 0.529 | 0.119 | 0.301 | 0.467 | 0.374 | 0.169 | 0.821 | 0.208 | 0.146 | 0.0542 | 0.142 | 0.315 | 0.26 | 0.328 | -0.0186
CC(=O)c1c(C)c2cnc(Nc3ccc(N4CCNCC4)cn3)nc2n(C2CCCC2)c1=O [Palbociclib] + Cn1cnc2c(F)c(Nc3ccc(Br)cc3Cl)c(C(=O)NOCCO)cc21 [Selumetinib] (first compound max 10 µM, 7x7, partner max 10 µM) | 0.595 | 0.376 | 0.33 | 0.414 | 0.457 | 0.254 | 0.338 | 0.549 | 0.718 | 0.188 | 0.361 | 0.629 | 0.241 | 0 | 0.354 | -0.0337
C[C@@H](c1ccc2nccn2c1)n1nnc2ncc(-c3cnn(C)c3)nc21 [Savolitinib] + CC1(C)CCC(CN2CCN(c3ccc(C(=O)NS(=O)(=O)c4ccc(NCC5CCOCC5)c([N+](=O)[O-])c4)c(Oc4cnc5[nH]ccc5c4)c3)CC2)=C(c2ccc(Cl)cc2)C1 [Venetoclax] (first compound max 1 µM, 7x7, partner max 1 µM) | 0.213 | 0.0333 | 0.0875 | 0.216 | 0.0882 | 0.392 | 0.117 | 0.151 | 0.162 | 0.12 | 0.0906 | 0.131 | 0.233 | 0.127 | 0.138 | -0.018
C[C@@H](c1ccc2nccn2c1)n1nnc2ncc(-c3cnn(C)c3)nc21 [Savolitinib] + Cc1c2c(nn1C)CSCc1cc(n(C)n1)CSc1cc(c3ccccc3c1)OCCCc1c(C(=O)O)n(C)c3c-2c(Cl)ccc13 [AZD5991] (first compound max 1 µM, 7x7, partner max 1 µM) | 0.956 | 0.175 | 0.103 | 0.136 | 0.114 | 0.488 | 0.0768 | 0.427 | 0.154 | 0.176 | 0.117 | 0.125 | 0.2 | 0.248 | 0.133 | -0.0163
Cn1cnc2c(F)c(Nc3ccc(Br)cc3Cl)c(C(=O)NOCCO)cc21 [Selumetinib] + C=CCn1c(=O)c2cnc(Nc3ccc(N4CCN(C)CC4)cc3)nc2n1-c1cccc(C(C)(C)O)n1 [AZD1775] (first compound max 10 µM, partner max 1 µM) | 0.966 | 0.84 | 0.401 | 0.557 | 0.93 | 0.697 | 0.395 | 0.637 | 0.686 | 0.303 | 0.439 | 0.728 | 0.396 | 0.134 | 0.342 | 0.039
